In experiment [1] the target is T1, κ opioid receptor (Homo sapiens, UniProt P41145). Kind of experiment: κ-opioid receptor [35S]GTPγS functional assay. It counts as biochemical. Set-up: expressed in transfected cells. Particulars: for Emax: relative to the effect elicited by U69,593. As to the method:
Functional [^35S]GTPγS binding assays were conducted as follows. κ opioid receptor membrane solution was prepared by sequentially adding final concentrations of 0.026 μg/μl κ membrane protein (in-house), 10 μg/mL saponin, 3 μM GDP and 0.20 nM [^35S]GTPγS to binding buffer (100 mM NaCl, 10 mM MgCl2, 20 mM HEPES, pH 7.4) on ice. The prepared membrane solution (190 μl/well) was transferred to 96-shallow well polypropylene plates containing 10 μl of 20× concentrated stock solutions of agonist prepared in DMSO. Plates were incubated for 30 min at a temperature of about 25° C. with shaking.
κ GTP EC50 is the concentration of a compound providing 50% of the maximal response for the compound at a κ receptor.
κ GTP Emax (%) is the maximal effect elicited by a compound relative to the effect elicited by U69,593.
In general terms: GTPγS resists hydrolysis and so accumulates on activated G proteins.

Experiment [2] has as its target T2, μ-opioid receptor (Homo sapiens, UniProt P35372). Description: μ-opioid receptor [35S]GTPγS functional assay. It counts as biochemical. Particulars: for EC50: μ-receptor membranes, read-out: GTPγS μ EC50; for Emax: relative to the effect elicited by DAMGO. The arrangement: purchased Perkin Elmer, Shelton, Conn. As to the method: [^35S]GTPγS functional assays were conducted using freshly thawed μ-receptor membranes (Perkin Elmer, Shelton, Conn.). Assay reactions were prepared by sequentially adding the following reagents to binding buffer (100 mM NaCl, 10 mM MgCl2, 20 mM HEPES, pH 7.4) on ice (final concentrations indicated): membrane protein (0.026 mg/mL), saponin ([…]), GDP ([…]) and [^35S]GTPγS (0.20 nM; Perkin Elmer, Shelton, Conn.). The prepared membrane solution (190 μl/well) was transferred to 96-shallow well polypropylene plates containing 10 μI of 20× concentrated stock solutions of the agonist [D-Ala^e, N-methyl-Phe^4 Gly-ol^5]-enkephalin (DAMGO) prepared in dimethyl sulfoxide (DMSO). Plates were incubated for 30 min at about 25° C. with shaking. […] Data were analyzed using the sigmoidal dose-response curve fitting functions in GraphPad PRISM v. 3.0, or an in-house function for non-linear, sigmoidal dose-response curve-fitting.
μ GTP EC50 is the concentration of a compound providing 50% of the maximal response for the compound at a μ-opioid receptor.
μ GTP Emax (%) is the maximal effect elicited by a compound relative to the effect elicited by DAMGO, a standard μ agonist. Generally, the μ GTP Emax (%) value measures the efficacy of a compound to treat or prevent pain or other Conditions.
Target sequence in this assay (P35372 whole entry, species assumed): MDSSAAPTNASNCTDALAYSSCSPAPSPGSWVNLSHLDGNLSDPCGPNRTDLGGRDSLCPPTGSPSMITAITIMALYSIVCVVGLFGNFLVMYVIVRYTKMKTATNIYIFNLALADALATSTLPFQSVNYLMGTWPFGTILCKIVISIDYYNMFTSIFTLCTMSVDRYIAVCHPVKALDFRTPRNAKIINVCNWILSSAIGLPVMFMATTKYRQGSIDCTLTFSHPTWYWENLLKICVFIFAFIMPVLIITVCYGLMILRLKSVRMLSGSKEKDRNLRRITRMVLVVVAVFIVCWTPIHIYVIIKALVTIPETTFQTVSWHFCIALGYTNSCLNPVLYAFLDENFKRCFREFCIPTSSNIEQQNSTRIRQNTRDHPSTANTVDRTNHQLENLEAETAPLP

Experiment [3] concerns the target T2, μ-opioid receptor. Kind of experiment: μ-opioid receptor radioligand dose-displacement binding assay. As to the method: Radioligand dose-displacement binding assays for μ-opioid receptors used 0.3 nM [^3H]-diprenorphine (Perkin Elmer, Shelton, Conn.), with […] membrane protein/well in a final volume of […] binding buffer (10 mM MgCl2, 1 mM EDTA, 5% DMSO, 50 mM HEPES, pH 7.4). Reactions were carried out in the absence or presence of increasing concentrations of unlabeled naloxone. All reactions were conducted in 96-deep well polypropylene plates for 2 hr at room temperature. […] The data were analyzed using the one-site competition curve fitting functions in GraphPad PRISM™ v. 3.0 or higher (San Diego, Calif.), or an in-house function for one-site competition curve-fitting.
Target sequence in this assay (P35372 whole entry): as the sequence (P35372 whole entry, species assumed) above

For experiment [4], the target named is T1, κ opioid receptor. Kind of experiment: κ-opioid receptor radioligand dose displacement binding assay. Set-up: expressed in transfected cells; host or cells: HEK-293. As to the method:
Membranes from recombinant HEK-293 cells expressing the human κ opioid receptor (κ) (cloned in house) were prepared by lysing cells in ice cold hypotonic buffer (2.5 mM MgCl2, 50 mM HEPES, pH 7.4) (10 mL/10 cm dish) followed by homogenization with a tissue grinder/Teflon pestle. Membranes were collected by centrifugation at 30,000×g for 15 min at 4° C. and pellets were resuspended in hypotonic buffer to a final concentration of 1-3 mg/mL. Protein concentrations were determined using the BioRad protein assay reagent with bovine serum albumen as standard. Aliquots of κ receptor membranes were stored at […]

Where [5] appears, read: κ membrane protein (in-house), read-out: GTPγS κ EC50.
The mark [6] stands for this setting: [3H]-diprenorphine displacement, read-out: Ki (nM) Opioid Receptor μ.
[7] abbreviates: [3H]-U69,593 displacement, HEK-293 membranes, read-out: Ki (nM) Opioid Receptor κ.

Molecules are shown by their SMILES. Read-outs that look alike come from different tables or passages of the source. Some results are limits rather than exact numbers.

The results in this text go back to patent publication US20180127374A1, “BE[…] AS OPIOID RECEPTORS MODULATORS” (Purdue Pharma L.P., priority 2012, published 2018).

As usually defined, the Emax is the size of the effect at its maximum, as opposed to the concentration needed. As a reminder, the EC50 is the concentration that produces a half-maximal response. As a reminder, the Ki is a measure of affinity in units of concentration, obtained from inhibition or displacement.

T1 sequence (P41145 whole entry): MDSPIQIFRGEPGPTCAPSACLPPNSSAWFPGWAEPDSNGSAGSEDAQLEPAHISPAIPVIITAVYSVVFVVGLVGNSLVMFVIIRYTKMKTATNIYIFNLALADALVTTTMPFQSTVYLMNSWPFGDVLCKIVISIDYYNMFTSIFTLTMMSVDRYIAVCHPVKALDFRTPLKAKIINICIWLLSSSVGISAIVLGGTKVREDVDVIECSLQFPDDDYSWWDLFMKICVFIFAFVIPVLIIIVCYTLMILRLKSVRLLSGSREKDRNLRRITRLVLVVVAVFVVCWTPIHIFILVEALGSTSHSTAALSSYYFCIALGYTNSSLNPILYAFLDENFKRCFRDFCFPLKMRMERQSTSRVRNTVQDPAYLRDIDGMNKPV

In the case of `C[C@H](NC(=O)C[C@@]12CCN(CC3CC3)C(Cc3ccc(O)cc31)[C@@H]2C)C(N)=O` [Compound 1, (2S)-2-(2-((6R,11R)-3-(cyclopropylmethyl)-8-hydroxy-11-methyl-1,2,3,4,5,6-hexahydro-2,6-methanobenzo[d]azocin-6-yl)acetamido)propanamide], the Emax at κ opioid receptor [1] was determined as 31.3%. Further, the EC50 on κ opioid receptor [1] (setting [5]) was 0.00891 µM; at μ-opioid receptor [2] (μM), greater than 20 µM. The Ki was 31.7 ± 6.24 nM at μ-opioid receptor [3] (setting [6]) and 1.48 ± 0.27 nM on κ opioid receptor [4] (setting [7]).

Turning to `C[C@H]1C2Cc3ccc(O)cc3[C@@]1(CCCC(N)=O)CCN2CC1CC1` [Compound 2, 4-((6S,11R)-3-(cyclopropylmethyl)-8-hydroxy-11-methyl-1,2,3,4,5,6-hexahydro-2,6-methanobenzo[d]azocin-6-yl)butanamide], the Emax at κ opioid receptor [1] is 67.3%. Also, the EC50 was 0.00898 µM on κ opioid receptor [1] (setting [5]) and greater than 20 µM at μ-opioid receptor [2] (μM). The Ki on μ-opioid receptor [3] (setting [6]) came out at 10.7 ± 1.82 nM; on κ opioid receptor [4] (setting [7]), 0.49 ± 0.11 nM.

For the compound `COc1ccc2c(c1)[C@@]1(CCCC(=O)O)CCN(CC3CC3)C(C2)[C@@H]1C` [Compound 3, 4-((6S,11R)-3-(cyclopropylmethyl)-8-methoxy-11-methyl-1,2,3,4,5,6-hexahydro-2,6-methanobenzo[d]azocin-6-yl)butanoic acid], the maximal effect (Emax) on κ opioid receptor [1] was found to be 80.7%. Besides, the EC50 on κ opioid receptor [1] (setting [5]) was 3.47 µM; at μ-opioid receptor [2] (μM), greater than 20 µM. Moreover, the figures for the Ki at μ-opioid receptor [3] (setting [6]) and on κ opioid receptor [4] (setting [7]) were 1110 ± 32.6 nM and 137 ± 41.9 nM, respectively.

Consider `C[C@H]1C2Cc3ccc(O)cc3[C@@]1(CCCC(=O)O)CCN2CC1CC1` [Compound 4, 4-((6S,11R)-3-(cyclopropylmethyl)-8-hydroxy-11-methyl-1,2,3,4,5,6-hexahydro-2,6-methanobenzo[d]azocin-6-yl)butanoic acid], for which, on κ opioid receptor [1], the Emax is 67.3%. Also, the EC50 is 0.0248 µM on κ opioid receptor [1] (setting [5]) and greater than 20 µM at μ-opioid receptor [2] (μM). Also, the results for the Ki at μ-opioid receptor [3] (setting [6]) and on κ opioid receptor [4] (setting [7]) were 7.61 ± 2.44 nM and 2.52 ± 0.23 nM, respectively.

In the case of `COc1ccc2c(c1)[C@@]1(CC(=O)O)CCN(CC3CC3)C(C2)[C@@H]1C` [Compound 5, 2-((6R,11R)-3-(cyclopropylmethyl)-8-methoxy-11-methyl-1,2,3,4,5,6-hexahydro-2,6-methanobenzo[d]azocin-6-yl)acetic acid], on μ-opioid receptor [2] (μM), the EC50 is greater than 20 µM. The Ki on κ opioid receptor [4] (setting [7]) was determined as 4460 ± 1850 nM.

On κ opioid receptor [1], `COc1ccc2c(c1)[C@@]1(CC(=O)N[C@@H](C)C(N)=O)CCN(CC3CC3)C(C2)[C@@H]1C` [Compound 7, (2S)-2-(2-((6R,11R)-3-(cyclopropylmethyl)-8-methoxy-11-methyl-1,2,3,4,5,6-hexahydro-2,6-methanobenzo[d]azocin-6-yl)acetamido)propanamide] came in with an Emax of 29.7%. Also, the values for the EC50 at κ opioid receptor [1] (setting [5]) and at μ-opioid receptor [2] (μM) were 5 µM and greater than 20 µM, respectively. For the same compound, at κ opioid receptor [4] (setting [7]), the Ki came out at 193 ± 68.7 nM.

For the compound `COc1ccc2c(c1)[C@@]1(CCC[C@@H](O)CO)CCN(CC3CC3)C(C2)[C@@H]1C` [Compound 10, (2R)-5-((6S,11R)-3-(cyclopropylmethyl)-8-methoxy-11-methyl-1,2,3,4,5,6-hexahydro-2,6-methanobenzo[d]azocin-6-yl)pentane-1,2-diol], on κ opioid receptor [1], the EC50 came to 0.0943 µM and the Emax is 95%. For the same compound, the affinity on μ-opioid receptor [3] corresponds to a Ki of 3090 ± 922 nM. This compound gave a Ki on κ opioid receptor [4] of 6.68 ± 0.61 nM.

As to `C[C@H]1[C@H]2Cc3ccc(O)cc3[C@]1(CCCC(N)=O)CCN2Cc1ccccc1` [Compound 19, 4-((2R,6R,11R)-3-benzyl-8-hydroxy-11-methyl-1,2,3,4,5,6-hexahydro-2,6-methanobenzo[d]azocin-6-yl)butanamide], the EC50 on κ opioid receptor [1] (κ membrane protein (in-house), μM, read-out: GTPγS κ EC50) was greater than 20 µM; on μ-opioid receptor [2] it was 0.0401 µM. At μ-opioid receptor [2], this compound gave an Emax of 13.7%. Moreover, on μ-opioid receptor [3] (setting [6]), the Ki turned out to be 2.65 ± 0.36 nM.

For `COc1ccc2c(c1)[C@]1(CCNC(=O)c3cccc(C(=O)O)c3)CCN(CC3CC3)[C@H](C2)[C@@H]1C` [Compound 24, 3-((2-((2R,6R,11R)-3-(cyclopropylmethyl)-8-methoxy-11-methyl-1,2,3,4,5,6-hexahydro-2,6-methanobenzo[d]azocin-6-yl)ethyl)carbamoyl)benzoic acid], the Emax is 88.7% at κ opioid receptor [1] and 76.3% at μ-opioid receptor [2]. Moreover, the EC50 amounted to 0.664 µM on κ opioid receptor [1] (setting [5]) and 0.251 µM on μ-opioid receptor [2]. Further, the Ki on κ opioid receptor [4] (setting [7]) worked out at 130 ± 26.5 nM.

Regarding `COc1ccc2c(c1)[C@]1(CCNC(=O)c3ccc(C(=O)O)cc3)CCN(CC3CC3)[C@H](C2)[C@@H]1C` [Compound 25, 4-((2-((2R,6R,11R)-3-(cyclopropylmethyl)-8-methoxy-11-methyl-1,2,3,4,5,6-hexahydro-2,6-methanobenzo[d]azocin-6-yl)ethyl)carbamoyl)benzoic acid], the Emax at κ opioid receptor [1] is 69.3%; on μ-opioid receptor [2], 104%. In addition, the EC50 amounted to 2.41 µM on κ opioid receptor [1] (setting [5]) and 0.584 µM at μ-opioid receptor [2]. For the same compound, the Ki at κ opioid receptor [4] (setting [7]) was 479 ± 36.3 nM.

Turning to `COc1ccc2c(c1)[C@]1(CCOc3ccc(C(=O)O)cc3)CCN(CC3CC3)[C@H](C2)[C@@H]1C` [Compound 27, 4-(2-((2R,6S,11R)-3-(cyclopropylmethyl)-8-methoxy-11-methyl-1,2,3,4,5,6-hexahydro-2,6-methanobenzo[d]azocin-6-yl)ethoxy)benzoic acid], the Emax on κ opioid receptor [1] worked out at 88.3%; on μ-opioid receptor [2], 94.7%. The results for the EC50 at κ opioid receptor [1] (setting [5]) and at μ-opioid receptor [2] were 3.69 µM and 0.245 µM, respectively. For the same compound, the Ki on κ opioid receptor [4] (setting [7]) is 330 ± 70.1 nM.

For `C[C@H]1[C@H]2Cc3ccc(O)cc3[C@]1(CCOc1ccc(C(=O)O)cc1)CCN2CC1CC1` [Compound 28, 4-(2-((2R,6S,11R)-3-(cyclopropylmethyl)-8-hydroxy-11-methyl-1,2,3,4,5,6-hexahydro-2,6-methanobenzo[d]azocin-6-yl)ethoxy)benzoic acid], the Emax at κ opioid receptor [1] came out at 110%; on μ-opioid receptor [2], 86.3%. The EC50 on κ opioid receptor [1] (setting [5]) came out at 0.0391 µM; at μ-opioid receptor [2], 0.00592 µM. Further, at κ opioid receptor [4] (setting [7]), the Ki came to 5.75 ± 1.04 nM.

For `COc1ccc2c(c1)[C@@]1(CC(=O)O)CCN(CC3CC3)[C@@H](C2)[C@H]1C` [Compound 29, 2-((2S,6R,11S)-3-(cyclopropylmethyl)-8-methoxy-11-methyl-1,2,3,4,5,6-hexahydro-2,6-methanobenzo[d]azocin-6-yl)acetic acid], at μ-opioid receptor [2], the Emax came to 24.8% and the EC50 stood at 0.346 µM. Moreover, the Ki at κ opioid receptor [4] ([3H]-U69,593 displacement, μM, read-out: Ki Opioid Receptor κ) was greater than 20000 nM.

Consider `C[C@H]1[C@H]2Cc3ccc(O)cc3[C@]1(CCNC(=O)CN(C)C)CCN2CC1CC1` [Compound 30, N-(2-((2R,6R,11R)-3-(cyclopropylmethyl)-8-hydroxy-11-methyl-1,2,3,4,5,6-hexahydro-2,6-methanobenzo[d]azocin-6-yl)ethyl)-2-(dimethylamino)acetamide], for which the Emax at κ opioid receptor [1] is 96.5%; on μ-opioid receptor [2], 82.2%. The EC50 on κ opioid receptor [1] (setting [5]) is 0.00177 µM; at μ-opioid receptor [2], 0.00485 µM. The Ki at κ opioid receptor [4] (setting [7]) was 0.05 ± 0.02 nM.

`C[C@H]1[C@H]2Cc3ccc(O)cc3[C@@]1(CCNC(=O)CN)CCN2CC1CC1` [Compound 31]: the Emax was 90.3% on κ opioid receptor [1] and 102% on μ-opioid receptor [2]. The values for the EC50 at κ opioid receptor [1] (setting [5]) and on μ-opioid receptor [2] were 0.0012 µM and 0.00287 µM, respectively. Further, the Ki on κ opioid receptor [4] (setting [7]) is 0.07 ± 0.01 nM.
